Laboratory results reported in patent US20130022692A1, “Expression Modulator For Clock Gene Period” (SHISEIDO COMPANY, LTD., priority 2010, published 2013).

Test system: Period1 gene
Assay: Period1 gene expression in cultured human skin fibroblastic cells (RT-PCR)
Type: cell-based
Conditions: for Induction of expression rhythm and increase of Period1 gene expression: peak at 2 hours after stimulation, result in words
Experimental: As the cultured human fibroblastic cells, fibroblastic cells from normal human skin were purchased (Cell Application, Inc.) and used in the experiments. They were inoculated in DMEM medium supplemented with 10% FBS, 20 mM HEPES, Glutamax and antibacterial agents and cultured at 37° C. in 5% CO2. On the 6th day of culture, 50 ng/mL of cortisol or 10 μM of forskolin was added to each wells, and the samples were harvested at various times after time 0, which was defined as the time immediately after the addition of cortisol or forskolin. RNA was extracted from the cells with a commercially available RNA extraction kit, and the amounts of expression of the intended genes were measured by RT-PCR technology using commercially available PCR primers (Perfect Real Time Primer, Takara Bio). As for clock genes, amounts of expression of Period1 and Bmal1, which are involved in the core system, were determined. Similarly, the amounts of expression of a housekeeping gene RPLP0 were quantified and used as an internal standard to calculate the relative expression of the intended genes to RPLP0. […] Test substances were evaluated for the expression modulating effect on a Period gene based on the amount of gene expression at 2 hours after stimulation. To confirm the induction of expression rhythm for the Period gene, the amount of expression of the Period1 gene at 16 hours after stimulation was also determined. Fibroblastic cells from normal human skin (Cell Application, Inc.) were inoculated according to a method similar to those used above. Each test substance was added on the 6th day of culture to a final concentration of 100 ppm, and the cells were harvested 2 and 16 hours after stimulation. […] The amounts of expression of the Period1 gene were determined by RT-PCR technology using commercially available PCR primers (Perfect Real Time Primer, Takara Bio). The amounts of gene expression of a housekeeping gene RPLP0 were quantified and used as an internal standard to calculate the relative expression of the target genes with respect to RPLP0.

Compound	Induction of expression rhythm and increase of Period1 gene expression	Relative amount of Period1 gene expression (2 hours) (test substance 100 ppm, 2 hours after stimulation, relative to RPLP0, control 0.23, *p < 0.05, **p < 0.01)
C[C@]12CCC(=O)C=C1CC[C@@H]1[C@@H]2[C@@H](O)C[C@@]2(C)[C@H]1CC[C@]2(O)C(=O)CO [cortisol, reference compound]	significantly increase amounts of gene expression of Period1	
C=C1CC/C=C(\C)CC[C@@H]2[C@@H]1CC2(C)C [beta-Caryophyllene]	significantly increase amounts of gene expression of Period1	0.44*
